Data set [1] relates to phenylquinone-induced writhing. The data set can be described thus: Phenylquinone writhing test (analgesia). It is filed as in vivo, mouse (Carworth CF1 S female). The settings on record: Mus musculus. An excerpt: This mouse test is predictive of analgesic response in humans. [E. Siegmund, R. Cadmus and G. Lee, Proc. Soc.
ED50 values were obtained graphically from the data.
Background: In writhing tests, fewer writhes than in controls are read as antinociception.

Another data set is described as follows: in vivo. The settings on record: mouse, in vivo, po. As for the experimental part:
(§1) Groups of five Carworth CF1 S female mice, 16-20 g each, were fasted 16-22 hours before use. The mice were put in opaque plastic "shoe-box" cages 15-30 min. before injection, and then treated orally with 4, 12, 36, 108 and 324 mg/kg of the compound to be tested as a 13 mg/ml solution in 1% aqueous distilled water solution of methylcellulose (Methocel®). Each dose was given in a standard volume of 0.45 ml. Observations were made at 0.5, 2 and 24 hours after dosing. ED50 values were calculated for each parameter including death (LD50). The ED50 and LD50 values are the doses at which 50% of the naimals would be expected to respond.
(§2) The mouse is placed on a stainless steel wire mesh screen (8 × 12 inches, 3 mesh per inch, 1/4 inch mesh openings) "shoe-box" lid (1 inch high) and is observed for normal activities, such as nose movements, head movements with apparent visual examination of the area, and/or walking around on the screen. Absence of or marked depression of these activities for 5 seconds constitutes loss of exploratory activity.
(§3) The mouse is picked up by the tail and placed on the screen with its head facing the observer. Bilateral eyelid closure of 50% or more two seconds after placement is considered ptosis.
(§4) The mouse is placed with its front paws on the edge of a stainless steel "shoe-box" cover, 1 inch high, covered with adhesive tape. Failure to remove both paws from the cover's edge within 5 seconds constitutes catatonia.
(§5) The observer gently strokes the abdominal musculature of the mouse with thumb and forefinger. Flaccidity (or rarely, tenseness) is recorded.
(§6) The mouse is gently swung by the tail toward a horizontal 12 gauge wire tautly stretched 25 cm above the bench. After the mouse grasps the wire with its forepaws, its posterior end is held directly below the wire. A normal mouse grasps the wire with its forepaws and immediately lifts its hind limbs to the wire. Failure to grasp the wire with the forepaws in both trials constitutes loss of the grip reflex; failure to lift the hind limbs to grasp the wire with at least one hind paw within 5 seconds constitutes loss of the lift reflex.
(§7) The mouse is placed on the bar 10-20 cm horizontally and 9 cm vertically from a Galton whistle adjusted for 13 kc (5 mm on the whistle scale) and is subjected to several short bursts of sound.
(§8) An effective tranquilizer should induce little or no tremor response. […] Tremors include fine or coarse and intermittent or continuous tremors.

For another data set, the system named is female white mice. The data set can be described thus: animal or person. The settings on record: Mus musculus, po, oral, mice. As for the experimental part:
as §1, §2, §3, §4, §5, §6, §7, §8

[2] abbreviates: read-out: Catatonia ED50, Table 1.
The mark [3] stands for this setting: read-out: Exploratory Loss Visual ED50, Table 1.
The mark [4] stands for this setting: read-out: Muscle Tone ED50, Table 1.
[5] abbreviates: read-out: Reflexes Grip ED50, Table 1.
[6] abbreviates: read-out: Reflexes Lift ED50, Table 1.
Setting [7] is: read-out: Reflexes Pinna ED50, Table 1.
Where [8] appears, read: read-out: Catatonia ED50, Table III.
Setting [9] is: read-out: Exploratory Loss Visual ED50, Table III.
Where [10] appears, read: read-out: Muscle Tone ED50, Table III.
Setting [11] is: read-out: Ptosis ED50, Table III.
[12] abbreviates: read-out: Reflexes Grip ED50, Table III.
Setting [13] is: read-out: Reflexes Lift ED50, Table III.
Where [14] appears, read: read-out: Reflexes Pinna ED50, Table III.

Where a name gives a salt, the structure may show the parent alone. Read-outs that look alike come from different tables or passages of the source. Bounds are passed on as bounds.

What is called ED50 is the dose that gives a 50% effect, or the effect in half of the subjects. By LD50 is commonly meant the dose expected to kill half of the subjects tested. Higher therefore signals lower toxicity.

Take `c1csc(CN2C[C@@H]3c4ccccc4[C@@H]4C[C@@]3(C2)c2ccccc24)c1` (relative stereo) [Example 54, 2-(2-Thienylmethyl)-2,3,8,12b-tetrahydro-1H-3a,8-methanodibenzo[3,4:6,7]cyclohepta[1,2-c]pyrrole]: the ED50 is 27 mg/kg in data set [1] (po, Table 1, mice); above 324 mg/kg in the data set “in vivo”; 200 mg/kg in the data set with female white mice (setting [2]); 200 mg/kg in the data set with female white mice (setting [3]); 200 mg/kg in the data set with female white mice (setting [4]); 60 mg/kg with female white mice (read-out: Ptosis ED50, Table 1). For the same compound, the ED50 with female white mice (setting [5]) is above 324 mg/kg; in the data set on female white mice (setting [6]), above 324 mg/kg; in the data set with female white mice (setting [7]) it was 200 mg/kg. In the data set “in vivo”, this compound displayed an LD50 at 24 h above 324 mg/kg.

`c1ccc([C@@H]2C[C@H]2CN2CC3c4ccccc4C4CC3(C2)c2ccccc24)cc1` (relative stereo) [Example 55, 2-(trans-2-Phenylcyclopropylmethyl)-2,3,8,12 b-tetrahydro-1H-3a,8-methanodibenzo[3,4:6,7]cyclohepta[1,2-c]pyrrole]: the ED50 was 48 mg/kg in data set [1] (po, Table 1, mice); above 324 mg/kg in the data set “in vivo”; 200 mg/kg in the data set on female white mice (setting [2]); 100 mg/kg with female white mice (setting [3]); 100 mg/kg with female white mice (setting [4]); 36 mg/kg with female white mice (read-out: Ptosis ED50, Table 1). Moreover, the ED50 in the data set on female white mice (setting [5]) is above 324 mg/kg; in the data set on female white mice (setting [6]), 200 mg/kg; in the data set with female white mice (setting [7]) it was 200 mg/kg. The same compound came in with an LD50 at 24 h in “in vivo” above 324 mg/kg.

With `CC(C)(C)N1C[C@@H]2c3ccccc3[C@@H]3C[C@@]2(C1)c1ccccc13` (relative stereo) [Example 56, 2-Tertiarybutyl-2,3,8,12b-tetrahydro-1H-3a,8-methanodibenzo[3,4:6,7]cyclohepta[1,2-c]pyrrole], the ED50 in data set [1] (Table 1, oral, mice) is 45 mg/kg; in “in vivo” (Tremors ED50, Table 1, mice) it was 200 mg/kg; in the data set with female white mice (setting [2]), 200 mg/kg; in the data set on female white mice (setting [3]), 200 mg/kg; in the data set on female white mice (setting [4]) it was 100 mg/kg; with female white mice (read-out: Ptosis ED50, Table 1), 100 mg/kg. Besides, the ED50 with female white mice (setting [5]) came to 100 mg/kg; in the data set with female white mice (setting [6]) it was 60 mg/kg; with female white mice (setting [7]), 200 mg/kg. The LD50 at 24 h in “in vivo” was 300 mg/kg.

As to `CCCN1C[C@@H]2c3ccccc3[C@@H]3C[C@@]2(C1)c1ccccc13` (relative stereo) [Example 58, 2-n-Propyl-2,3,8,12b-tetrahydro-1H-3a,8-methanodibenzo[3,4:6,7]cyclohepta[1,2-c]pyrrole], the ED50 came to 2.9 mg/kg in data set [1] (Table 1, oral, mice); 7 mg/kg in the data set on female white mice (setting [2]); 7 mg/kg with female white mice (setting [3]); 7 mg/kg with female white mice (setting [4]); 7 mg/kg in the data set on female white mice (read-out: Ptosis ED50, Table 1); 60 mg/kg in the data set on female white mice (setting [5]). In addition, the ED50 in the data set with female white mice (setting [6]) turned out to be 7 mg/kg; with female white mice (setting [7]) it was 4 mg/kg. The compound further had an LD50 at 24 h in “in vivo” of 200 mg/kg.

For `CCCCCN1C[C@@H]2c3ccccc3[C@@H]3C[C@@]2(C1)c1ccccc13` (relative stereo) [Example 59, 2-n-Pentyl-2,3,8,12b-tetrahydro-1H-3a,8-methanodibenzo[3,4:6,7]cyclohepta[1,2-c]pyrrole], the ED50 in data set [1] (Table 1, oral, mice) came out at 8.2 mg/kg; in the data set with female white mice (setting [2]) it was 17 mg/kg; with female white mice (setting [3]), 8.4 mg/kg; in the data set with female white mice (setting [4]), 13 mg/kg; in the data set on female white mice (read-out: Ptosis ED50, Table 1), 4.5 mg/kg; with female white mice (setting [5]), 100 mg/kg. Further, the ED50 with female white mice (setting [6]) amounted to 19 mg/kg; in the data set on female white mice (setting [7]), 8 mg/kg. This compound had an LD50 at 24 h in the data set “in vivo” above 324 mg/kg.

On to `CC(C)CCN1C[C@@H]2c3ccccc3[C@@H]3C[C@@]2(C1)c1ccccc13` (relative stereo) [Example 60, 2-(3-Methylbutyl)-2,3,8,12b-tetrahydro-1H-3a, 8-methanodibenzo[3,4:6,7]cyclohepta[1,2-c]pyrrole], for which the ED50 in data set [1] (Table 1, oral, mice) stood at 15 mg/kg; in the data set with female white mice (setting [2]), 20 mg/kg; in the data set with female white mice (setting [3]), 20 mg/kg; in the data set on female white mice (setting [4]) it was 20 mg/kg; in the data set with female white mice (read-out: Ptosis ED50, Table 1), 36 mg/kg; with female white mice (setting [5]), 200 mg/kg. For the same compound, the ED50 turned out to be 60 mg/kg with female white mice (setting [6]) and 36 mg/kg in the data set on female white mice (setting [7]). Further, the LD50 at 24 h in the data set “in vivo” was above 324 mg/kg.

Take `c1ccc(CCCCN2C[C@@H]3c4ccccc4[C@@H]4C[C@@]3(C2)c2ccccc24)cc1` (relative stereo) [Example 61, 2-(4-Phenylbutyl)-2,3,8,12b-tetrahydro-1H-3a,8-methanodibenzo[3,4:6,7]cyclohepta[1,2-c]pyrrole]: the ED50 in data set [1] (po, Table 1, mice) is 5.6 mg/kg; in the data set with female white mice (setting [2]), 20 mg/kg; in the data set with female white mice (setting [3]), 20 mg/kg; with female white mice (setting [4]), 20 mg/kg; with female white mice (read-out: Ptosis ED50, Table 1) it was 36 mg/kg; with female white mice (setting [5]), above 324 mg/kg. Moreover, the ED50 is 60 mg/kg in the data set with female white mice (setting [6]) and 36 mg/kg in the data set on female white mice (setting [7]). Moreover, in “in vivo”, the LD50 at 24 h is above 324 mg/kg.

`Nc1ccc2c(c1)[C@]13C[C@H]2c2ccccc2[C@H]1CN(CC1CCCC1)C3` (relative stereo) [Example 64, 5-Amino-2-cyclopentylmethyl-2,3,8,12b-tetrahydro-1H-3a, 8-methanodibenzo[3,4:6,7]cyclohepta[1,2-c]pyrrole Hydrochloride]: the ED50 in data set [1] (po, Table III, mice) was 6.2 mg/kg; in the data set with female white mice (setting [8]), below 4 mg/kg; in the data set with female white mice (setting [9]), below 4 mg/kg; in the data set with female white mice (setting [10]) it was below 4 mg/kg; in the data set with female white mice (setting [11]) it was below 4 mg/kg; in the data set on female white mice (setting [12]), 200 mg/kg. The ED50 in the data set with female white mice (setting [13]) was 12 mg/kg; in the data set with female white mice (setting [14]), 7 mg/kg. The compound also gave an LD50 at 24 h in the data set “in vivo” above 324 mg/kg.

As to `CC(=O)Nc1ccc2c(c1)[C@]13C[C@H]2c2ccccc2[C@H]1CN(CC1CCCC1)C3` (relative stereo) [Example 65, 5-Acetamido-2-cyclopentylmethyl-2,3,8,12b-tetrahydro1H-3a,8-methanodibenzo[3,4:6,7]cyclohepta[1,2-c]pyrrole Hydrochloride], the ED50 was 18 mg/kg in data set [1] (po, Table III, mice); 60 mg/kg with female white mice (setting [8]); 200 mg/kg in the data set on female white mice (setting [9]); 60 mg/kg with female white mice (setting [10]); 7 mg/kg with female white mice (setting [11]); above 324 mg/kg in the data set on female white mice (setting [12]). For the same compound, the ED50 is 60 mg/kg in the data set with female white mice (setting [13]) and 36 mg/kg in the data set on female white mice (setting [14]). The compound further gave an LD50 at 24 h in “in vivo” of 300 mg/kg.

In the case of `CC(=O)c1ccc2c(c1)[C@]13C[C@H]2c2ccccc2[C@H]1CN(CC1CCCC1)C3` (relative stereo) [Example 66, 5-Acetyl-2-cyclopentylmethyl-2,3,8,12b-tetrahydro-1H3a,8-methanodibenzo[3,4:6,7]cyclohepta[1,2-c]pyrrole Hydrochloride], the ED50 in data set [1] (po, Table III, mice) is 3.1 mg/kg; in the data set with female white mice (setting [8]), 12 mg/kg; in the data set on female white mice (setting [9]), 7 mg/kg; with female white mice (setting [10]), 12 mg/kg; in the data set with female white mice (setting [11]) it was below 4 mg/kg; in the data set with female white mice (setting [12]), 300 mg/kg. Moreover, the ED50 in the data set on female white mice (setting [13]) is 20 mg/kg; in the data set with female white mice (setting [14]), 12 mg/kg. In “in vivo”, this compound returned an LD50 at 24 h above 324 mg/kg.

`Oc1ccc2c(c1)[C@]13C[C@H]2c2ccccc2[C@H]1CN(CC1CCCC1)C3` (relative stereo) [Example 68, 5-Hydroxy-2-cyclopentylmethyl-2,3,8,12b-tetrahydro-1H-3a,8-methanodibenzo[3,4:6,7]cyclohepta[1,2-c]pyrrole Hydrochloride]: the ED50 in data set [1] (po, Table III, mice) is 19 mg/kg; in the data set on female white mice (setting [8]) it was 20 mg/kg; with female white mice (setting [9]), 12 mg/kg; in the data set with female white mice (setting [10]) it was 20 mg/kg; in the data set with female white mice (setting [11]), 12 mg/kg; in the data set on female white mice (setting [12]) it was above 324 mg/kg. Also, the ED50 in the data set with female white mice (setting [13]) is 60 mg/kg; in the data set with female white mice (setting [14]), 36 mg/kg. Besides, the LD50 at 24 h in the data set “in vivo” is above 324 mg/kg.

The record behind these values is patent US4088772A, “Methanodibenzocycloheptapyrroles” (E. I. Du Pont de Nemours and Company, priority 1975, dated 1978).
